In series [1] the test system is HeLa cells. As to the kind of experiment: Confocal microscopy of fixed HeLa cells (peptide localisation, endogenous TACC3 and CHC on mitotic spindle). It counts as cell-based. The method, then:
HeLa cells grown on glass coverslips in complete growth medium and treated with 2.5, 5 and 10 μM FAM-peptides for 5 h. Cells were washed with PBS and fixed with PTEMF (20 mM PIPES, pH 6.8, 10 mM EGTA, 1 mM MgCl2, 0.2% Triton X-100 and 4% paraformaldehyde) for 10 min and permeabilized at room temperature in 0.5% Triton-X100 in PBS for 10 min. Cells were blocked in 3% BSA in PBS for 1 h and incubated overnight with primary antibodies diluted in 3% BSA/PBS buffer followed by 1 h incubation with secondary antibodies. Primary antibodies were as follows: mouse anti-CHC (X22; GTX22731; 1:250), rabbit anti-TACC3 (ab134154, Abcam; 1:500). Secondary antibodies were anti-mouse IgG Atto 594 (1:250, 76085, Merck) and anti-rabbit IgG Atto 647N antibody (1:250, 40839, Merck). Coverslips were mounted with ProLong Gold antifade reagent with DAPI (Invitrogen). Peptides were imaged using their 6-FAM fluorescent tag with a 488 nm argon laser. Imaging was performed on a Zeiss LSM880 upright confocal microscope using a 40x/1.4 NA oil objective. Z-stacks comprising of 9–13 × 1 μm sections were acquired. Images were captured using identical settings. The region of interest (~0.6 μm^2) was quantified in three different locations over the spindle, cytoplasm and in the non-cell region of background. Images were analysed using Fiji (v.2.9.0).

Series [2] concerns the target T1, K507A-CHC^ankle (Homo sapiens, UniProt Q00610, K507A).
T1 construct: we used the minimal ankle region of CHC (CHC^ankle, aa 358–574); GST (TEV-cleavable); made in house
T1 sequence (Q00610 358-574 K507A): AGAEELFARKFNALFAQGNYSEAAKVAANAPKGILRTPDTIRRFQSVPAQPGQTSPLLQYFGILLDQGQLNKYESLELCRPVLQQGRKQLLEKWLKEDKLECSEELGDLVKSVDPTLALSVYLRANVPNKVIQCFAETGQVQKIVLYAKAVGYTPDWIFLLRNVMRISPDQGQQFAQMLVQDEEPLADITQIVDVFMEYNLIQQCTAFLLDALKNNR
As to the kind of experiment: Fluorescence polarisation direct binding assay, K507A-CHC ankle. Particulars: direct binding FP, FAM labelled peptides; CHC with K507A substitution; mean of three experiments ± SD; read-out: KD, stapled and control peptides, CHC K507A. The source says:
CHC constructs for binding studies were produced during previous work by cloning the respective CHC coding sequence of Q00610 (CLH1_HUMAN) aa 1–574 and 358–574, respectively) into a modified pGEX vector containing a TEV-cleavable GST tag[26]. Point mutations K506A and K507A were introduced by site-directed mutagenesis. GB1-TACC3 is the small protein GB1[47] fused to a short, disordered peptide sequence from human TACC3 (Q9Y6A5, aa 545–573). This hybrid sequence was cloned into a pETM6T1 vector which contains a TEV protease-cleavable N-terminal His-NusA tag.
(§1) Binding affinity of CHC and TACC3 peptides was calculated based on fluorescence polarization assays performed as reported previously, using linear and stapled FAM-TACC3 peptides corresponding to aa 549–570 of human TACC3 protein. Linear peptides were purchased from PPR (Fareham, UK); Alta Bioscience (Redditch, UK); Biomatik Corporation (Ontario, Canada). Stock solutions of peptides were 10 mM in DMSO. Binding assays were performed in triplicate in the binding buffer 20 mM HEPES pH 7.5, 150 mM NaCl, 5 mM DTT, 0.05% Tween-20. Data analysis was performed using a one-site specific binding model in Prism (GraphPad software, v10.1.0).

Series [3] deals with T2, CHC^ankle (clathrin heavy chain aa 358–574) (Homo sapiens, UniProt Q00610).
T2 construct: we used the minimal ankle region of CHC (CHC^ankle, aa 358–574); GST (TEV-cleavable); made in house
T2 sequence (Q00610 358-574): T1 sequence (Q00610 358-574 K507A) with A150K
Briefly: Fluorescence polarisation direct binding assay, CHC ankle WT. Conditions: direct binding FP, FAM labelled peptides; CHC WT (385–574); mean of three experiments ± SD; read-out: KD, stapled and control peptides, CHC WT. The method, then: as §1

Each structure is given as a SMILES string. Changes are numbered by the printed parent chain. Positions of bridges follow the written chain, without caps; N, C: chain ends. Non-standard residues stand in square brackets, D forms with d. Residues, ends and D or L forms follow the SMILES beside them. *: point of attachment. 5FAM = O=C1OC2(c3ccc(O)cc3Oc3cc(O)ccc32)c2ccc(C(=O)*)cc21; 6FAM = O=C1OC2(c3ccc(O)cc3Oc3cc(O)ccc32)c2cc(C(=O)*)ccc21; S5 = C=CCCC[C@](C)(N)C(=O)O; AEEEA = NCCOCCOCCOCC(=O)O

Consider `CC(C)C[C@H](NC(=O)[C@H](C)NC(=O)[C@H](CO)NC(=O)[C@H](CCC(=O)O)NC(=O)[C@H](CCCCN)NC(=O)c1ccc2c(c1)C(=O)OC21c2ccc(O)cc2Oc2cc(O)ccc21)C(=O)N[C@@H](CCCNC(=N)N)C(=O)N[C@@H](CCCCN)C(=O)N[C@@H](CCC(N)=O)C(=O)N[C@@H](CCC(=O)O)C(=O)N[C@@H](CC(C)C)C(=O)N[C@@H](CC(C)C)C(=O)N[C@@H](CC(C)C)C(=O)N[C@@H](CCC(=O)O)C(=O)N[C@@H](Cc1ccccc1)C(=O)N[C@@H](CC(=O)O)C(=O)N1CCC[C@H]1C(=O)N[C@@H](CC(C)C)C(=O)N[C@@H](Cc1ccccc1)C(=O)N[C@@H](CCCNC(=N)N)C(N)=O` [Opt P6 TACC3 S558E] (5FAM-KESALRKQELLLEFDPLFR-NH2; N-terminus and C-terminus assumed), for which the “cell permeability seen by confocal imaging” value in series [1] (fixed HeLa cells, 5 h after adding 5 μM FAM-peptide to the culture medium) was “not sufficiently cell permeable”.
As to `CC(C)C[C@H](NC(=O)[C@H](C)NC(=O)[C@H](CO)NC(=O)[C@H](CCC(=O)O)NC(=O)[C@H](CCCCN)NC(=O)COCCOCCOCCNC(=O)c1ccc2c(c1)C1(OC2=O)c2ccc(O)cc2Oc2cc(O)ccc21)C(=O)N[C@@H](CCCNC(=N)N)C(=O)N[C@@H](CCCCN)C(=O)N[C@@]1(C)CCCC=CCCC[C@@](C)(C(=O)N[C@@H](CCC(=O)O)C(=O)N[C@@H](Cc2ccccc2)C(=O)N[C@@H](CC(=O)O)C(=O)N2CCC[C@H]2C(=O)N[C@@H](CC(C)C)C(=O)N[C@@H](Cc2ccccc2)C(=O)N[C@@H](CCCNC(=N)N)C(=O)N[C@@H](CC(=O)O)C(=O)N[C@@H](CO)C(N)=O)NC(=O)[C@H](CC(C)C)NC(=O)[C@H](CC(C)C)NC(=O)[C@H](CCC(=O)O)NC1=O` [Opt PEG3 SP TACC3] ({6FAM-AEEEA}-KESALRK[S5]ELL[S5]EFDPLFRDS-NH2; staple 8-12), in series [1] (fixed mitotic HeLa cells, FAM-labelled peptides, confocal microscopy), the “colocalisation with endogenous TACC3 on the mitotic spindle” value is “colocalised with endogenous TACC3 on the mitotic spindle”. The “reduction of endogenous TACC3 levels in the mitotic spindle” value in series [1] (metaphase HeLa cells, peptide 2.5, 5 and 10 μM, 5 h, compared to the negative control SP TACC3 peptide) was “up to 40%”.
Turning to `CC(C)C[C@H](NC(=O)[C@H](Cc1ccc(O)cc1)NC(=O)[C@H](CC(C)C)NC(=O)[C@]1(C)CCCC=CCCC[C@](C)(NC(=O)[C@H](C)NC(=O)[C@H](CO)NC(=O)[C@H](CCC(=O)O)NC(=O)[C@H](CCCCN)NC(=O)[C@H](Cc2ccccc2)NC(=O)c2ccc3c(c2)C2(OC3=O)c3ccc(O)cc3Oc3cc(O)ccc32)C(=O)N[C@@H](CCCNC(=N)N)C(=O)N[C@@H](CCCCN)C(=O)N[C@@H](CCC(N)=O)C(=O)N1)C(=O)N[C@@H](CCCCN)C(=O)N[C@@H](Cc1ccccc1)C(=O)N[C@@H](CC(=O)O)C(=O)N1CCC[C@H]1C(=O)N[C@@H](CC(C)C)C(=O)N[C@@H](CC(C)C)C(=O)N[C@@H](CCCNC(=N)N)C(=O)N[C@@H](CC(=O)O)C(=O)N[C@@H](CO)C(N)=O` [SP2] (6FAM-FKESA[S5]RKQ[S5]LYLKFDPLLRDS-NH2; staple 6-10), the results for the Kd in series [2] and in series [3] were 23 ± 5 µM and 145 ± 3 µM, respectively.
Consider `CC(C)C[C@@H]1NC(=O)[C@H](C)NC(=O)[C@H](CO)NC(=O)[C@@](C)(NC(=O)[C@H](CCCCN)NC(=O)[C@H](Cc2ccccc2)NC(=O)c2ccc3c(c2)C2(OC3=O)c3ccc(O)cc3Oc3cc(O)ccc32)CCCC=CCCC[C@@](C)(C(=O)N[C@@H](CCCCN)C(=O)N[C@@H](CCC(N)=O)C(=O)N[C@@H](CC(=O)O)C(=O)N[C@@H](CC(C)C)C(=O)N[C@@H](Cc2ccc(O)cc2)C(=O)N[C@@H](CC(C)C)C(=O)N[C@@H](CCCCN)C(=O)N[C@@H](Cc2ccccc2)C(=O)N[C@@H](CC(=O)O)C(=O)N2CCC[C@H]2C(=O)N[C@@H](CC(C)C)C(=O)N[C@@H](CC(C)C)C(=O)N[C@@H](CCCNC(=N)N)C(=O)N[C@@H](CC(=O)O)C(=O)N[C@@H](CO)C(N)=O)NC1=O` [SP3D] (6FAM-FK[S5]SAL[S5]KQDLYLKFDPLLRDS-NH2; staple 3-7), for which the equilibrium dissociation constant (Kd) was 23 ± 6 µM in series [2] and 92 ± 3 µM in series [3].
For the compound `CC(C)C[C@@H]1NC(=O)[C@H](C)NC(=O)[C@H](CO)NC(=O)[C@@](C)(NC(=O)[C@H](CCCCN)NC(=O)[C@H](Cc2ccccc2)NC(=O)c2ccc3c(c2)C(=O)OC32c3ccc(O)cc3Oc3cc(O)ccc32)CCCC=CCCC[C@@](C)(C(=O)N[C@@H](CCCCN)C(=O)N[C@@H](CCC(N)=O)C(=O)N[C@@H](CCC(=O)O)C(=O)N[C@@H](CC(C)C)C(=O)N[C@@H](Cc2ccc(O)cc2)C(=O)N[C@@H](CC(C)C)C(=O)N[C@@H](CCCCN)C(=O)N[C@@H](Cc2ccccc2)C(=O)N[C@@H](CC(=O)O)C(=O)N2CCC[C@H]2C(=O)N[C@@H](CC(C)C)C(=O)N[C@@H](CC(C)C)C(=O)N[C@@H](CCCNC(=N)N)C(=O)N[C@@H](CC(=O)O)C(=O)N[C@@H](CO)C(N)=O)NC1=O` [SP3E] (5FAM-FK[S5]SAL[S5]KQELYLKFDPLLRDS-NH2; staple 3-7), the values for the equilibrium dissociation constant (Kd) in series [2] and in series [3] were 22 ± 6 µM and 78 ± 3 µM, respectively.
For `CC(C)C[C@H](NC(=O)[C@H](C)NC(=O)[C@H](CO)NC(=O)[C@H](CCC(=O)O)NC(=O)[C@H](CCCCN)NC(=O)[C@H](Cc1ccccc1)NC(=O)c1ccc2c(c1)C(=O)OC21c2ccc(O)cc2Oc2cc(O)ccc21)C(=O)N[C@@H](CCCNC(=N)N)C(=O)N[C@@H](CCCCN)C(=O)N[C@@H](CCC(N)=O)C(=O)N[C@@H](CCC(=O)O)C(=O)N[C@@H](CC(C)C)C(=O)N[C@@H](Cc1ccc(O)cc1)C(=O)N[C@@]1(C)CCCC=CCCC[C@@](C)(C(=O)N[C@@H](CC(C)C)C(=O)N[C@@H](CC(C)C)C(=O)N[C@@H](CCCNC(=N)N)C(=O)N[C@@H](CC(=O)O)C(=O)N[C@@H](CO)C(N)=O)NC(=O)[C@H](CC(=O)O)NC(=O)[C@H](Cc2ccccc2)NC(=O)[C@H](CCCCN)NC1=O` [SP5E] (5FAM-FKESALRKQELY[S5]KFD[S5]LLRDS-NH2; staple 13-17), the Kd in series [2] is 146 ± 3 µM.
